{"source": "patent US12642790B2", "about": "“Drug combination for treating obesity” (The Curators of the University of Missouri, priority 2022, dated 2026)", "key": {"[1]": {"test_system": "ERβ", "test": "Western blot of ERβ protein in inguinal subcutaneous adipose tissue of diet-induced obese WT and ERβDBDKO mice", "type": "in vivo", "settings": "daily injections of CL for two weeks; ERβDBDKO vs WT diet-induced obese mice; GxT p<0.001; FIG. 1B", "excerpt": "(§1) Inguinal subcutaneous adipose tissue was harvested from diet-induced obese male and female wild-type (WT) and estrogen receptor beta (ERβ) DNA-binding domain (DBD) knock-out (ERβDBDKO) mice that were given daily injections of CL316,243 (CL), a beta3 adrenergic receptor (B3AR) ligand, for two weeks. ERβDBDKO mice express a mutated form of ERβ that lacks genomic activity by genetic ablation of the DBD, however still retain non-classical (i.e., non-genomic) signaling through ERβ. Protein was then isolated from the adipose tissue using Thermo Scientific™ RIPA lysis and extraction buffer, quantified using BCA method, then 10 ug was separated on a 4-20% SDS-PAGE gel followed by transfer to polyvinylidene difluoride membranes using BioRad Trans-Turbo Blot system. […] Images were captured on a ChemiDoc Imaging System (BioRad, Hercules, CA), band intensity was quantified using ImageLab software (BioRad), then ERβ and UCP1 protein expression was quantified relative to beta actin.\n(§2) FIG. 1A is a Western blot showing the levels of ERβ and UPC1 in WT and ERβDBDKO (“KO”) mice, in the presence and absence of CL316243 (“CL”). The blot in FIG. 1A was scanned to quantify the band intensity, and the data used to graph the relative protein fold change for ERβ (FIG. 1B) and UCP-1 (FIG. 1C)."}, "[2]": {"test_system": "UCP1", "test": "Western blot of UCP1 protein in inguinal subcutaneous adipose tissue of diet-induced obese WT and ERβDBDKO mice", "type": "in vivo", "settings": "daily injections of CL for two weeks; ERβDBDKO vs WT diet-induced obese mice; GxT p=0.017; FIG. 1C", "excerpt": "as §1, §2"}, "[3]": {"test_system": "UCP1", "test": "ucp1 mRNA induction in primary adipocytes by qRT-PCR", "type": "cell-based", "settings": "primary adipocytes from male C57BL6J mice; 1 uM CL with 1 uM PHTPP or 10 nM DPN; 24 hours; compared to CL alone; FIG. 4", "procedure": "To test the hypothesis in vitro, that inhibition of genomic activity of ERβ would enhance the effectiveness of the […], CL316,243 (CL) to induce expression of the mitochondrial UCP1, primary adipocytes were treated with the following: (a) CL, (b) diarylpropionitrile (DPN) (i.e., ligand known to promote classical genomic functions of ERβ), (c) 4-(2-phenyl-5,7-bis(trifluoromethyl)pyrazolo[1,5-a]pyrimidin-3-yl)phenol (PHTPP) (i.e., ligand known to suppress classical genomic functions of ERβ), (d) CL+DPN, and (e) CL+PHTPP. Briefly, perigonadal and subcutaneous WAT was harvested from male C57BL6J mice, digested in collagenase to isolate stromal vascular cells then cultured in Dulbecco's modified eagle medium/nutrient mixture F12 media supplemented with 10% fetal bovine serum, 1% GlutaMax, 0.1% gentamicin and 0.05% insulin at 37° C. and 5% CO2. Adipocyte differentiation was induced by supplementing media with 0.5 mM 3-isobutyl-1-methylxanithin, 1 uM dexamethasone, and […] for 48 hours. 14 days post induction, primary adipocytes were treated with either 1 uM CL, 10 nM DPN, 1 uM PHTPP or a combination of ligands as outlined above. After 24 hours treatment, ucp1 mRNA induction was measured using qRT-PCR. […] Ucp1 mRNA expression is expressed as 2^ΔCT where ΔCT=housekeeping CT−Ucp1 CT and presented as fold difference relative to control (CTRL). […]"}, "[4]": {"test_system": "white adipose tissue", "settings": "obese human individuals; cited from earlier work"}, "[5]": {"settings": "administration of mirabegron; cited from earlier work"}}, "data": [{"smiles": "C[C@H](Cc1ccc2c(c1)OC(C(=O)[O-])(C(=O)[O-])O2)NC[C@H](O)c1cccc(Cl)c1.[Na+].[Na+]", "note": "[CL]", "values": [{"measurement": "ERβ protein content in WAT (relative to beta actin)", "setting": "[1]", "value": "increases ERβ protein content in WAT to a greater level in ERβDBDKO mice compared to WT"}, {"measurement": "UCP1 protein content (relative to beta actin)", "setting": "[2]", "value": "increases UCP1 protein content in ERβDBDKO mice more so than in WT mice"}]}, {"smiles": "Oc1ccc(-c2c(-c3ccccc3)nn3c(C(F)(F)F)cc(C(F)(F)F)nc23)cc1", "note": "[PHTPP, 4-(2-phenyl-5,7-bis(trifluoromethyl)pyrazolo[1,5-a]pyrimidin-3-yl)phenol]", "values": [{"measurement": "Ucp1 mRNA expression, fold difference relative to control", "setting": "[3]", "value": "increases the CL-mediated induction of UCP1"}]}, {"smiles": "Nc1nc(CC(=O)Nc2ccc(CCNC[C@H](O)c3ccccc3)cc2)cs1", "note": "[mirabegron]", "values": [{"measurement": "white adipose tissue dysfunction", "setting": "[4]", "value": "reduced white adipose tissue dysfunction"}, {"measurement": "side effects", "setting": "[5]", "value": "may result in hypertension, nasopharyngitis, tachycardia, headaches, urinary tract infections, upper respiratory tract infections, constipation, abdominal pain, and fatigue"}]}]}
